This note sets out measurements from patent publication US20170119020A1, “METHOD OF FEEDING AN ANIMAL” (CARGILL, INCORPORATED, priority 2014, published 2017).

The subject of one data set is sows and piglets. The data set is described as follows: Content of vitamins E and A in serum of sows and piglets, HPLC (Example 10). The conditions noted are these: for Vitamin A in serum of piglets / Vitamin E in serum of piglets: piglets at 21 days. The data set is classed as in vivo, pig. An excerpt: The performance following criteria were monitored during the trial: (i) Sows response criteria (actual parity, farrowing rate, culled sows—number and reasons, wean-to-mating interval, farrowing rate in the next cycle); (ii) litter response criteria (number of piglets, total, alive, stillborn, mummies; weight of piglets and litters; survival). The following biochemical (blood) criteria were monitored during the trial for the sows (mating, farrowing and weaning), piglets 21st day: (i) glutathione peroxidase (GPx) activity; (ii) superoxide dismutase (SOD) activity; (iii) total antioxidant status (TAS); (iv) vitamin E content; (v) vitamin A content.
To determine the oxidative status, the blood samples were collected from sows and piglets into tubes with lithium anticoagulant—received whole blood for analysis. At the same time blood samples were taken for blood clot. They were centrifuged (1500 rpm, 15 Temp. 4° C.) and obtained serum was pipetted into separate tubes.
The content of the TAS (total antioxidant status) were determined using the Antioxidant assay kit (Cat. No CS0790), the activity of SOD (superoxide dismutase) was determined using SOD determination kit 19160, the activity of GPx (glutathione Peroxide assai Cellular Activity Kit) Cat. No CGP1. The content of vitamins A and E by McMurray and Blanchflower 1979 (Journal of Chromatography 178, 525-531.). TAS
Serum samples (1 ml) was deproteinized with anhydrous ethanol (1 ml), extracted with 5 ml of n-hexane (Vortex 5′), then centrifuged (3000 rpm, 10′, temp. 4° C.). The resulting 4 ml of the supernatant were evaporated to dryness under nitrogen, and then dissolved in 1 ml of 96% ethanol and analyzed by high performance liquid chromatography (HPLC).
The contents of retinol and tocopherol was determined by reversed-phase high performance liquid chromatography (HPLC) with chromatograph SHIMADZU. Nucleosil C18 column is used, the carrier phase was methanol-water (95:5, v: v). The measurement was performed using a UV detector at a wavelength of 326 nm to determine the amount of retinol and a fluorescence detector (excitation wavelength—295 nm, emission wavelength—330 nM) to determine the tocopherol content. The concentration of retinol and tocopherol were calculated on the basis of the peak external standards (Sigma-Aldrich (□)-a-Tocopherol, Retinol Vitamin-A-alcohol).

In data set [1] the test system is livers of Ross 308 chicks. Kind of data set: Chick liver SOD and GSSG analysis, OXISELECT kits (Example 5). The data set is classed as in vivo, chicken. The conditions noted are these: breeder diet. On the procedure: Group egg weights were recorded at E0. At E7 and E18, all eggs were candled and empty eggs or eggs containing dead embryos were removed (early dead E0-E7, mid dead E8-E18). At E18 eggs were transferred to the hatching baskets after candling. At hatch (E21) the number of dead chickens, late dead embryos (E19-E21) and pipped eggs were recorded. The number of hatched chickens was recorded per replicate, as well as average chick weight. Hatchability was calculated as percentage of total eggs set. Sex was determined by feather sexing, female chickens were euthanized by CO2 and disposed according to local regulations. Per experimental unit, five male chickens were selected for the grow-out period and allocated to broiler grower pens. Only chickens with an average body weight, completely dry, showing active movement and with a good navel score were selected. After this selection one male chicken per experimental unit was selected for dissection. Sample chickens were individually weighed and killed by cervical dislocation to measure remaining yolk-sac weights, yolk-free body mass (“YFBM”), liver weight, chick length, and shank length of both shanks. The livers were immediately placed on dry ice and after dissection stored at −20° C. for further analysis (“SOD and GSSG”). Relative asymmetry was calculated according to the following formula: […]
Furthermore, no treatment effects were found on several chick quality parameters (YFBM, chick length, and relative asymmetry). OXISELECT Superoxide Dismutase Activity Assay (“SOD”) and OXISELECT Total Glutathione (GSSG/GSH) Assay (“GSSG”) kits, available commercially from Cell Biolabs, Inc., San Diego, Calif., USA, were used to analyze chick livers.

The mark [2] stands for this setting: Breeding, Group 2: vitamin E 50/75 mg/kg diet.
Where [3] appears, read: Breeding, Group 3: vitamin E 100/150 mg/kg diet.
Setting [4] is: Farrowing, Group 2: vitamin E 50/75 mg/kg diet.
Where [5] appears, read: Farrowing, Group 3: vitamin E 100/150 mg/kg diet.
Where [6] appears, read: Weaning, Group 2: vitamin E 50/75 mg/kg diet.
[7] abbreviates: Weaning, Group 3: vitamin E 100/150 mg/kg diet.
The mark [8] stands for this setting: Group 2: vitamin E 50/75 mg/kg sow diet.
The mark [9] stands for this setting: Group 3: vitamin E 100/150 mg/kg sow diet.

Turning to `Cc1c(C)c2c(c(C)c1O)CCC(C)(CCCC(C)CCCC(C)CCCC(C)C)O2` (racemic) [Vitamin E, DL-α-tocopherol], the Content of Vitamin A in the serum of sows is 0.15 µg/mL with sows and piglets (setting [2]); 0.16 µg/mL in the data set with sows and piglets (setting [3]); 0.11 µg/mL in the data set with sows and piglets (setting [4]); 0.15 µg/mL in the data set on sows and piglets (setting [5]); 0.15 µg/mL in the data set with sows and piglets (setting [6]); 0.15 µg/mL with sows and piglets (setting [7]). In addition, the Content of Vitamin E in the serum of sows was determined as 1.09 µg/mL with sows and piglets (setting [2]); 1.11 µg/mL with sows and piglets (setting [3]); 0.74 µg/mL with sows and piglets (setting [4]); 1.16 µg/mL in the data set with sows and piglets (setting [5]); 1.02 µg/mL with sows and piglets (setting [6]); 1.13 µg/mL in the data set on sows and piglets (setting [7]). Moreover, the “piglet serum a-tocopherol concentrations, lactation sows fed 150 mg/kg versus 75 mg/kg vitamin E” value with sows and piglets (P<0.001) is “higher”. For the same molecule, the “sow serum a-tocopherol (vitamin E) concentrations when vitamin E was added to the sow diets” value in the data set with sows and piglets (gestation and lactation, P<0.001) is listed as “higher”. Moreover, the Vitamin A in serum of piglets is 0.16 µg/mL in the data set on sows and piglets (setting [8]); 0.2 µg/mL in the data set with sows and piglets (setting [9]). In addition, the Vitamin E in serum of piglets was determined as 1.41 µg/mL with sows and piglets (setting [8]); 1.61 µg/mL in the data set with sows and piglets (setting [9]). In addition, the GSSG in data set [1] (vitamin E equivalence 80 ppm) came to 4.27 µM; in data set [1] (vitamin E equivalence 160 ppm) it was 4.48 µM. Further, the SOD units was 0.776 units in data set [1] (vitamin E equivalence 80 ppm) and 0.777 units in data set [1] (vitamin E equivalence 160 ppm).
